Results taken from PubChem BioAssay AID248 (DTP/NCI, 2004).
Values joined by “and” are separate entries in the source; they are usually repeats but may differ in a detail not shown here. Equal entries are not always repeated. Toxic doses and inconclusive results are not listed. Rule as the data show it: active = T/C of 150% or more; inactive = T/C below 125%.

Test system: L1210 leukemia ip in BDF1 mice, survival T/C
Assay: NCI In Vivo Anticancer Drug Screen. Data for tumor model L1210 Leukemia (intraperitoneal) in B6D2F1 (BDF1) mice
Settings: endpoint: mean survival time, higher = longer survival
Procedure, shortened: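 Tumor was transplanted into mice, which were then dosed with test compound or vehicle alone. Survival was recorded for each group, and the treated figure was expressed relative to the control figure.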

[1] = dose: 100.0 mg/kg/injection, schedule: Q04DX003 (ip), vehicle: saline with Tween-80
[2] = dose: 200.0 mg/kg/injection, schedule: Q04DX003 (ip), vehicle: saline with Tween-80
[3] = dose: 400.0 mg/kg/injection, schedule: Q04DX003 (ip), vehicle: saline with Tween-80
[4] = dose: 50.0 mg/kg/injection, schedule: Q01DX009 (ip), vehicle: Klucel (hydroxypropylcellulose) (HPC)
[5] = dose: 100.0 mg/kg/injection, schedule: Q01DX001 (ip), vehicle: saline
[6] = dose: 100.0 mg/kg/injection, schedule: Q01DX009 (ip), vehicle: Klucel (hydroxypropylcellulose) (HPC)
[7] = dose: 200.0 mg/kg/injection, schedule: Q01DX001 (ip), vehicle: saline
[8] = dose: 200.0 mg/kg/injection, schedule: Q01DX009 (ip), vehicle: Klucel (hydroxypropylcellulose) (HPC)
[9] = dose: 400.0 mg/kg/injection, schedule: Q01DX001 (ip), vehicle: saline
[10] = dose: 100.0 mg/kg/injection, schedule: Q01DX001 (ip), vehicle: Klucel (hydroxypropylcellulose) (HPC)
[11] = dose: 200.0 mg/kg/injection, schedule: Q01DX001 (ip), vehicle: Klucel (hydroxypropylcellulose) (HPC)
[12] = dose: 100.0 mg/kg/injection, schedule: Q04DX002 (ip), vehicle: saline
[13] = dose: 200.0 mg/kg/injection, schedule: Q04DX002 (ip), vehicle: saline
[14] = dose: 100.0 mg/kg/injection, schedule: Q04DX003 (ip), vehicle: Klucel (hydroxypropylcellulose) (HPC)
[15] = dose: 200.0 mg/kg/injection, schedule: Q04DX003 (ip), vehicle: Klucel (hydroxypropylcellulose) (HPC)
[16] = dose: 400.0 mg/kg/injection, schedule: Q01DX009 (ip), vehicle: Klucel (hydroxypropylcellulose) (HPC)
[17] = dose: 400.0 mg/kg/injection, schedule: Q04DX003 (ip), vehicle: Klucel (hydroxypropylcellulose) (HPC)

Measured: T/C

CC(=O)Oc1ccccc1OC(=S)N(C)C
inactive: [1] 106 % of control | [2] 111 % of control | [3] 105 % of control

O=C(c1ccccc1)c1cccc(Cl)c1
inactive: [4] 105 % of control | [5] 98 % of control | [6] 101 % of control | [7] 96 % of control | [8] 100 % of control | [9] 93 % of control

Cc1cc(CN(C)C)cc(C(C)C)c1O
inactive: dose: 12.5 mg/kg/injection, schedule: Q01DX009 (ip), vehicle: saline with Tween-80 96 % of control | dose: 25.0 mg/kg/injection, schedule: Q01DX009 (ip), vehicle: saline with Tween-80 97 % of control

CCOC(=O)CCc1c(COC(C)=O)[nH]c(C(=O)OCC)c1C
inactive: dose: 50.0 mg/kg/injection, schedule: Q01DX001 (ip), vehicle: Klucel (hydroxypropylcellulose) (HPC) 100 % of control | [10] 92 % of control | [11] 90 % of control

C=CCc1ccc(OC)c(OC)c1
inactive: [12] 97 % of control | [13] 95 % of control | dose: 400.0 mg/kg/injection, schedule: Q04DX002 (ip), vehicle: saline 104 % of control

CC(CCCN(CCCl)CCCl)Nc1c2ccccc2nc2c1ccc1ccccc12 (stereo unspecified)
inactive: dose: 0.15 mg/kg/injection, schedule: Q01DX009 (ip), vehicle: saline 109 % of control | dose: 0.31 mg/kg/injection, schedule: Q01DX009 (ip), vehicle: saline 110 % of control | dose: 0.63 mg/kg/injection, schedule: Q01DX009 (ip), vehicle: saline 122 % of control | dose: 1.25 mg/kg/injection, schedule: Q01DX009 (ip), vehicle: saline 94 % of control | dose: 2.5 mg/kg/injection, schedule: Q01DX009 (ip), vehicle: saline 106 % of control

O=c1c2c3ccccc3c(=O)c=2c2ccccc12
inactive: [10] 98 % of control | [11] 103 % of control

O=C(O)c1ccc2c(c1)Cc1ccccc1-2
inactive: dose: 75.0 mg/kg/injection, schedule: Q01DX001 (ip), vehicle: carboxymethylcellulose (CMC) 96 % of control | dose: 150.0 mg/kg/injection, schedule: Q01DX001 (ip), vehicle: carboxymethylcellulose (CMC) 95 % of control | dose: 300.0 mg/kg/injection, schedule: Q01DX001 (ip), vehicle: carboxymethylcellulose (CMC) 102 % of control

O=C(Nc1ccc(Nc2ccncc2)cc1)c1ccc([N+](=O)[O-])cc1
inactive: [6] 105 % of control | [14] 103 % of control | [8] 92 % of control | [15] 98 % of control | [16] 105 % of control | [17] 95 % of control

O=C(NS(=O)(=O)c1ccc(Cl)c(Cl)c1)NS(=O)(=O)c1ccc(Cl)c(Cl)c1
inactive: dose: 100.0 mg/kg/injection, schedule: Q01DX001 (ip), vehicle: saline with Tween-80 100 % of control | dose: 200.0 mg/kg/injection, schedule: Q01DX001 (ip), vehicle: saline with Tween-80 99 % of control

CCCOc1ccc(-c2nc(-c3ccc(N=Cc4ccc(N(CCOS(C)(=O)=O)CCOS(C)(=O)=O)cc4Cl)cc3)cs2)cc1
inactive: [4] 107 % of control | [10] 102 % of control | [6] 100 % of control | [11] 100 % of control | [8] 107 % of control | dose: 400.0 mg/kg/injection, schedule: Q01DX001 (ip), vehicle: Klucel (hydroxypropylcellulose) (HPC) 96 % of control

CC1CC[N-]CC1.CC1CC[N-]CC1.CS(C)=O.[Cl][Rh]([Cl])[Cl]
inactive: dose: 3.0 mg/kg/injection, schedule: Q01DX009 (ip), vehicle: saline with Tween-80 98 % of control | dose: 6.0 mg/kg/injection, schedule: Q01DX009 (ip), vehicle: saline with Tween-80 106 % of control | dose: 12.0 mg/kg/injection, schedule: Q01DX009 (ip), vehicle: saline with Tween-80 109 % of control

CCOC(C#Cc1ccccc1)OCC
inactive: dose: 100.0 mg/kg/injection, schedule: Q04DX003 (ip), vehicle: saline 105 % of control | dose: 200.0 mg/kg/injection, schedule: Q04DX003 (ip), vehicle: saline 114 % of control | dose: 400.0 mg/kg/injection, schedule: Q04DX003 (ip), vehicle: saline 95 % of control

CN1C2CCC1C(=O)N(Cc1ccccc1)C2=O
inactive: [1] 102 % of control | [2] 93 % of control | [3] 101 % of control

C=C1C(=O)OC2C1CCC1(C)CCCC(=C)C21O (stereo unspecified)
inactive: dose: 25.0 mg/kg/injection, schedule: Q04DX002 (ip), vehicle: saline 105 % of control | dose: 50.0 mg/kg/injection, schedule: Q04DX002 (ip), vehicle: saline 102 % of control | [12] 93 % of control and 97 % of control | [13] 90 % of control

CC(=N/N(Cc1ccccc1)c1ccccc1)/C(C)=N/N(Cc1ccccc1)c1ccccc1
inactive: dose: 100.0 mg/kg/injection, schedule: Q01DX001 (ip), vehicle: other 89 % of control | dose: 200.0 mg/kg/injection, schedule: Q01DX001 (ip), vehicle: other 89 % of control | dose: 400.0 mg/kg/injection, schedule: Q01DX001 (ip), vehicle: other 89 % of control

CCOC(=O)CCc1c(C(=O)OCC)[nH]c(C)c1C(=O)O
inactive: [14] 95 % of control | [15] 98 % of control | [17] 97 % of control

O=C(Nc1cccc(F)c1)Nc1ccccc1Cl
inactive: [6] 105 % of control | [8] 97 % of control | [16] 95 % of control

O=c1[nH]c2ccccc2c(=O)n1C1CCCCC1
inactive: dose: 25.0 mg/kg/injection, schedule: Q01DX009 (ip), vehicle: water 96 % of control | dose: 50.0 mg/kg/injection, schedule: Q01DX009 (ip), vehicle: water 94 % of control | dose: 100.0 mg/kg/injection, schedule: Q01DX009 (ip), vehicle: water 103 % of control | dose: 200.0 mg/kg/injection, schedule: Q01DX009 (ip), vehicle: water 98 % of control | dose: 400.0 mg/kg/injection, schedule: Q01DX009 (ip), vehicle: water 101 % of control

COc1cc(/C=N/NC(=O)c2ccccc2)ccc1O
inactive: [14] 100 % of control | [15] 95 % of control | [17] 94 % of control

Cc1cc(=O)[nH]c(O)c1C#N
inactive: dose: 100.0 mg/kg/injection, schedule: Q01DX009 (ip), vehicle: saline with Tween-80 98 % of control | dose: 200.0 mg/kg/injection, schedule: Q01DX009 (ip), vehicle: saline with Tween-80 108 % of control | dose: 400.0 mg/kg/injection, schedule: Q01DX009 (ip), vehicle: saline with Tween-80 98 % of control

Cc1nc2ncn(C3OC(CO)C(O)C3O)c2nc1C (stereo unspecified)
inactive: dose: 100.0 mg/kg/injection, schedule: Q01DX005 (ip), vehicle: saline 95 % of control | dose: 200.0 mg/kg/injection, schedule: Q01DX005 (ip), vehicle: saline 90 % of control

CN(C)c1ccc(C=Nc2ccc(O)cc2)cc1
inactive: [5] 88 % of control | [7] 94 % of control | [9] 96 % of control

COc1ccc(C[As+](Cc2ccccc2)(Cc2ccc(OC)cc2)Cc2ccc(OC)cc2)cc1
inactive: dose: 5.0 mg/kg/injection, schedule: Q01DX001 (ip), vehicle: saline 103 % of control | dose: 10.0 mg/kg/injection, schedule: Q01DX001 (ip), vehicle: saline 98 % of control | dose: 20.0 mg/kg/injection, schedule: Q01DX001 (ip), vehicle: saline 96 % of control

CC(=O)OC1CCC2(C)C(=CCC3C2CCC2(C)C3CC3C2C(c2ccccc2)=NN3c2ccccc2)C1 (stereo unspecified)
inactive: dose: 6.0 mg/kg/injection, schedule: Q04DX002 (ip), vehicle: Klucel (hydroxypropylcellulose) (HPC) 93 % of control | dose: 12.5 mg/kg/injection, schedule: Q04DX002 (ip), vehicle: Klucel (hydroxypropylcellulose) (HPC) 104 % of control | dose: 25.0 mg/kg/injection, schedule: Q04DX002 (ip), vehicle: Klucel (hydroxypropylcellulose) (HPC) 96 % of control | dose: 50.0 mg/kg/injection, schedule: Q04DX002 (ip), vehicle: Klucel (hydroxypropylcellulose) (HPC) 96 % of control
